Experiment [1] concerns the target T1, Kallikrein-1 (Homo sapiens, UniProt P06870). The experiment can be described thus: Inhibition of human KLK1 using Pro-Phe-Arg-MCA as substrate for 2 mins by spectrophotometric analysis.
For experiment [2], the target named is T2, Prostate-specific antigen (Homo sapiens, UniProt P07288).
T2 sequence (P07288 whole entry): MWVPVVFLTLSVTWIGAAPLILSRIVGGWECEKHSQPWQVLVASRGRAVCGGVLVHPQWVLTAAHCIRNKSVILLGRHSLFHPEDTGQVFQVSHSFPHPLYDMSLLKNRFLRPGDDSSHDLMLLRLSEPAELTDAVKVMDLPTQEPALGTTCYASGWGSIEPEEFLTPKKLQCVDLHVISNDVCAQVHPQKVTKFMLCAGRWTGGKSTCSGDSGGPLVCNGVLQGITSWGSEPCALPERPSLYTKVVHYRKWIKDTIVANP
The experiment can be described thus: Inhibition of KLK3.

The target of experiment [3] is T1, Kallikrein-1. Nature of the experiment: Inhibition of human KLK1.

The results in this text go back to ChEMBL document CHEMBL2169752, “Kallikrein protease activated receptor (PAR) axis: an attractive target for drug development” (J Med Chem, 2012).

Structures are written as SMILES. Numbered stars: 1 amine (or outer) side, 2 acyl side, 3 side chain; on linkers, the order of the positions; unused ones are H or OH. Square brackets hold non-standard residues; d marks the D form. Peptide text beside a SMILES is read from it. * marks the point of attachment. EDDnp = O=[N+]([O-])c1ccc(NCCN*)c([N+](=O)[O-])c1; X1 = NCC1CCC(C[C@H](N[*:1])C(=O)[*:2])CC1; 2Abz = Nc1ccccc1C(=O)O

T1 sequence (P06870 whole entry): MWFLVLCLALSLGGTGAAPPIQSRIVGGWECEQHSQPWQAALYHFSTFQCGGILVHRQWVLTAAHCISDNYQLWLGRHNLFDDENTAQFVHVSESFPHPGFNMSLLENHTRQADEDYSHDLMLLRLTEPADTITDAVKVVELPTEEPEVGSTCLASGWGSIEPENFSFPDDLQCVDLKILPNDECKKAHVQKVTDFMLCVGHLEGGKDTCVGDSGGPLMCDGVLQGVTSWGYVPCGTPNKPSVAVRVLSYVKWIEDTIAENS

Consider `CC(=O)N[C@H](CCCCN)C(=O)N[C@@H](Cc1ccccc1)C(=O)N[C@@H](Cc1ccccc1)C(=O)N1CCC[C@H]1C(=O)N[C@@H](CC(C)C)C(=O)N[C@@H](CCC(=O)O)C(N)=O`, for which the inhibition constant Ki in experiment [1] was found to be 8 nM. `Cc1c(-c2nc3ccccc3c(=O)o2)cccc1[N+](=O)[O-]` returned a Ki in experiment [2] of 300 nM. Still for that read-out and setting: with `COc1ccc(C(=O)n2nc(-c3cccnc3)nc2C)cc1OC` the figure was 500 nM.

In the case of `N=C(N)NCCC[C@H](NC(=O)[C@H](CO)NC(=O)[C@H](CC1CCC(CN)CC1)NC(=O)[C@H](Cc1ccccc1)NC(=O)c1ccccc1N)C(=O)N[C@@H](CCC(N)=O)C(=O)NCCNc1ccc([N+](=O)[O-])cc1[N+](=O)[O-]` (stereo not given in full) (H-[2Abz]F[X1]SRQ-EDDnp), in experiment [3], the inhibition constant Ki came out at 50 nM. On the same count and under the same terms, then `NC(=O)[C@H](CCCN=C(N)N)NC(=O)[C@H](CO)NC(=O)[C@H](CC1CCC(N)CC1)NC(=O)Cc1ccccc1` (mixture of isomers), with 110 nM.
